{"source": "PubChem BioAssay (NCI)", "experiment_in_all_cases": "inhibition of tumour cell growth, NCI panel, 48 h", "key": {"CCRF-CEM leukemia": {"tested_on": "CCRF-CEM leukemia"}, "CAKI-1 renal": {"tested_on": "CAKI-1 renal"}, "UACC-62 melanoma": {"tested_on": "UACC-62 melanoma"}, "786-0 renal": {"tested_on": "786-0 renal"}, "M14 melanoma": {"tested_on": "M14 melanoma"}, "SN12C renal": {"tested_on": "SN12C renal"}, "SF-539 CNS": {"tested_on": "SF-539 CNS"}, "SW-620 colon": {"tested_on": "SW-620 colon"}, "HL-60(TB) leukemia": {"tested_on": "HL-60(TB) leukemia"}, "OVCAR-3 ovarian": {"tested_on": "OVCAR-3 ovarian"}, "MCF7 breast": {"tested_on": "MCF7 breast"}, "SR leukemia": {"tested_on": "SR leukemia"}, "K-562 leukemia": {"tested_on": "K-562 leukemia"}, "NCI-H226 lung": {"tested_on": "NCI-H226 lung"}, "NCI-H23 lung": {"tested_on": "NCI-H23 lung"}, "SF-268 CNS": {"tested_on": "SF-268 CNS"}, "OVCAR-4 ovarian": {"tested_on": "OVCAR-4 ovarian"}, "U251 CNS": {"tested_on": "U251 CNS"}, "NCI-H460 lung": {"tested_on": "NCI-H460 lung"}, "OVCAR-5 ovarian": {"tested_on": "OVCAR-5 ovarian"}, "HCT-15 colon": {"tested_on": "HCT-15 colon"}, "HOP-92 NSCLC": {"tested_on": "HOP-92 NSCLC"}, "SK-OV-3 ovarian": {"tested_on": "SK-OV-3 ovarian"}, "PC-3 prostate": {"tested_on": "PC-3 prostate"}, "SF-295 CNS": {"tested_on": "SF-295 CNS"}, "UACC-257 melanoma": {"tested_on": "UACC-257 melanoma"}, "NCI/ADR-RES ovarian": {"tested_on": "NCI/ADR-RES ovarian"}, "T-47D breast": {"tested_on": "T-47D breast"}, "ACHN renal": {"tested_on": "ACHN renal"}}, "note": "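96-well plates; 48 h exposure; 5 concentrations. Endpoints by linear interpolation between flanking doses. Not reached: highest tested concentration assigned. GI50 marks 50% less growth. TGI is the concentration that stops growth completely.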"}
{"compound": "COc1cc(NC(=O)c2ccc(C(F)(F)F)nc2Nc2cc(Cl)ccc2C)cc(OC)c1OC", "values": [{"measurement": "GI50", "setting": "CCRF-CEM leukemia", "value": 0.452, "unit": "µM"}, {"measurement": "TGI", "setting": "CCRF-CEM leukemia", "value": 22, "unit": "µM"}, {"measurement": "GI50", "setting": "CAKI-1 renal", "value": 4.88, "unit": "µM"}, {"measurement": "TGI", "setting": "CAKI-1 renal", "value": 41.8, "unit": "µM"}, {"measurement": "GI50", "setting": "UACC-62 melanoma", "value": 2.53, "unit": "µM"}, {"measurement": "TGI", "setting": "UACC-62 melanoma", "value": 17, "unit": "µM"}, {"measurement": "GI50", "setting": "786-0 renal", "value": 4.72, "unit": "µM"}, {"measurement": "TGI", "setting": "786-0 renal", "value": 21.4, "unit": "µM"}, {"measurement": "GI50", "setting": "M14 melanoma", "value": 4.64, "unit": "µM"}, {"measurement": "TGI", "setting": "M14 melanoma", "value": 20.8, "unit": "µM"}, {"measurement": "GI50", "setting": "SN12C renal", "value": 7.76, "unit": "µM"}, {"measurement": "TGI", "setting": "SN12C renal", "value": 24.2, "unit": "µM"}, {"measurement": "GI50", "setting": "SF-539 CNS", "value": 9.89, "unit": "µM"}, {"measurement": "TGI", "setting": "SF-539 CNS", "value": 50.8, "unit": "µM"}, {"measurement": "GI50", "setting": "SW-620 colon", "value": 6.49, "unit": "µM"}, {"measurement": "TGI", "setting": "SW-620 colon", "value": 21.6, "unit": "µM"}, {"measurement": "GI50", "setting": "HL-60(TB) leukemia", "value": 0.194, "unit": "µM"}, {"measurement": "TGI", "setting": "HL-60(TB) leukemia", "value": 7.8, "unit": "µM"}, {"measurement": "GI50", "setting": "OVCAR-3 ovarian", "value": 6.47, "unit": "µM"}, {"measurement": "TGI", "setting": "OVCAR-3 ovarian", "value": 34.1, "unit": "µM"}, {"measurement": "GI50", "setting": "MCF7 breast", "value": 3.78, "unit": "µM"}, {"measurement": "TGI", "setting": "MCF7 breast", "value": 27.4, "unit": "µM"}, {"measurement": "GI50", "setting": "SR leukemia", "value": 0.215, "unit": "µM"}, {"measurement": "TGI", "setting": "SR leukemia", "value": 1.57, "unit": "µM"}, {"measurement": "GI50", "setting": "K-562 leukemia", "value": 1.77, "unit": "µM"}, {"measurement": "TGI", "setting": "K-562 leukemia", "value": 25.9, "unit": "µM"}, {"measurement": "GI50", "setting": "NCI-H226 lung", "value": 11.2, "unit": "µM"}, {"measurement": "TGI", "setting": "NCI-H226 lung", "value": 32.8, "unit": "µM"}, {"measurement": "GI50", "setting": "NCI-H23 lung", "value": 3.06, "unit": "µM"}, {"measurement": "TGI", "setting": "NCI-H23 lung", "value": 27.8, "unit": "µM"}, {"measurement": "GI50", "setting": "SF-268 CNS", "value": 6.63, "unit": "µM"}, {"measurement": "TGI", "setting": "SF-268 CNS", "value": 27.8, "unit": "µM"}, {"measurement": "GI50", "setting": "OVCAR-4 ovarian", "value": 3.16, "unit": "µM"}, {"measurement": "TGI", "setting": "OVCAR-4 ovarian", "value": 43.5, "unit": "µM"}, {"measurement": "GI50", "setting": "U251 CNS", "value": 4.27, "unit": "µM"}, {"measurement": "TGI", "setting": "U251 CNS", "value": 16.9, "unit": "µM"}, {"measurement": "GI50", "setting": "NCI-H460 lung", "value": 6, "unit": "µM"}, {"measurement": "TGI", "setting": "NCI-H460 lung", "value": 21.3, "unit": "µM"}, {"measurement": "GI50", "setting": "OVCAR-5 ovarian", "value": 12.3, "unit": "µM"}, {"measurement": "TGI", "setting": "OVCAR-5 ovarian", "value": 35.6, "unit": "µM"}, {"measurement": "GI50", "setting": "HCT-15 colon", "value": 4.35, "unit": "µM"}, {"measurement": "TGI", "setting": "HCT-15 colon", "value": 19, "unit": "µM"}, {"measurement": "GI50", "setting": "HOP-92 NSCLC", "value": 0.801, "unit": "µM"}, {"measurement": "TGI", "setting": "HOP-92 NSCLC", "value": 11, "unit": "µM"}, {"measurement": "GI50", "setting": "SK-OV-3 ovarian", "value": 7.69, "unit": "µM"}, {"measurement": "TGI", "setting": "SK-OV-3 ovarian", "value": 29.6, "unit": "µM"}, {"measurement": "GI50", "setting": "PC-3 prostate", "value": 1.89, "unit": "µM"}, {"measurement": "TGI", "setting": "PC-3 prostate", "value": 12.2, "unit": "µM"}, {"measurement": "GI50", "setting": "SF-295 CNS", "value": 5.66, "unit": "µM"}, {"measurement": "TGI", "setting": "SF-295 CNS", "value": 24.4, "unit": "µM"}, {"measurement": "GI50", "setting": "UACC-257 melanoma", "value": 4.55, "unit": "µM"}, {"measurement": "TGI", "setting": "UACC-257 melanoma", "value": 19.7, "unit": "µM"}, {"measurement": "GI50", "setting": "NCI/ADR-RES ovarian", "value": 5.91, "unit": "µM"}, {"measurement": "TGI", "setting": "NCI/ADR-RES ovarian", "value": 48.3, "unit": "µM"}, {"measurement": "GI50", "setting": "T-47D breast", "value": 3.99, "unit": "µM"}, {"measurement": "TGI", "setting": "T-47D breast", "value": 27.1, "unit": "µM"}, {"measurement": "GI50", "setting": "ACHN renal", "value": 5.13, "unit": "µM"}, {"measurement": "TGI", "setting": "ACHN renal", "value": 34, "unit": "µM"}]}
